Reference: ChEMBL document CHEMBL5550160, “Leveraging a rationally designed veliparib-based anilide eliciting anti-leukemic effects for the design of pH-responsive polymer nanoformulation” (Eur J Med Chem, 2024)
pIC50: −log10 of the molar value.

Columns and labels:
[1] = molecular target: Histone deacetylase 4 (Homo sapiens) (UniProt P56524); experiment: Inhibition of HDAC4 (unknown origin) assessed as residual activity at 1.52 x 10^-9M (reference value: 98.90%); conditions: dose 1.52 10^-9M
[2] = molecular target: T1, Polyamine deacetylase HDAC10 (Homo sapiens) (UniProt Q969S8); experiment: Inhibition of HDAC10 (unknown origin) assessed as residual activity at 3.70 x 10^-7M (reference value: 101.54%); conditions: dose 3.7 10^-7M
T1 sequence (whole entry): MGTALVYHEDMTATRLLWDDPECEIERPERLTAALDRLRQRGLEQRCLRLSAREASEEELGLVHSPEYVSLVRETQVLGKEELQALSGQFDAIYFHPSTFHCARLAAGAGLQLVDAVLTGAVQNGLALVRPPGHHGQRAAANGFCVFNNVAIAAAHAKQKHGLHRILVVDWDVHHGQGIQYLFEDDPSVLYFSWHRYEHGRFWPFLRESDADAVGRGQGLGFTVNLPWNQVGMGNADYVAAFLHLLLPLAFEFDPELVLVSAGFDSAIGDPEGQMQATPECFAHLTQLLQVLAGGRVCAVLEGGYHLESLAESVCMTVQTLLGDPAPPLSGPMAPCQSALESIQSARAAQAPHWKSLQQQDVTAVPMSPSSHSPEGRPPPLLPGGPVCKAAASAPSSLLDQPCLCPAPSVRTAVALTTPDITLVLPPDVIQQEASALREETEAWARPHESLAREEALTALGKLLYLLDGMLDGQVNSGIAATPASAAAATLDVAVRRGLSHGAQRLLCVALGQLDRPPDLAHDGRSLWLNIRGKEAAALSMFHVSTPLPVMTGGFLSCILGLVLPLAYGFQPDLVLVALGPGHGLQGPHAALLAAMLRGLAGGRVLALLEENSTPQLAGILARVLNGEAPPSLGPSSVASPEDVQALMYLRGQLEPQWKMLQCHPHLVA

[3] = molecular target: T2, Histone deacetylase 7 (Homo sapiens) (UniProt Q8WUI4); experiment: Inhibition of HDAC7 (unknown origin) assessed as residual activity at 3.70 x 10^-7M (reference value: 102.66%); conditions: dose 3.7 10^-7M
T2 sequence (whole entry): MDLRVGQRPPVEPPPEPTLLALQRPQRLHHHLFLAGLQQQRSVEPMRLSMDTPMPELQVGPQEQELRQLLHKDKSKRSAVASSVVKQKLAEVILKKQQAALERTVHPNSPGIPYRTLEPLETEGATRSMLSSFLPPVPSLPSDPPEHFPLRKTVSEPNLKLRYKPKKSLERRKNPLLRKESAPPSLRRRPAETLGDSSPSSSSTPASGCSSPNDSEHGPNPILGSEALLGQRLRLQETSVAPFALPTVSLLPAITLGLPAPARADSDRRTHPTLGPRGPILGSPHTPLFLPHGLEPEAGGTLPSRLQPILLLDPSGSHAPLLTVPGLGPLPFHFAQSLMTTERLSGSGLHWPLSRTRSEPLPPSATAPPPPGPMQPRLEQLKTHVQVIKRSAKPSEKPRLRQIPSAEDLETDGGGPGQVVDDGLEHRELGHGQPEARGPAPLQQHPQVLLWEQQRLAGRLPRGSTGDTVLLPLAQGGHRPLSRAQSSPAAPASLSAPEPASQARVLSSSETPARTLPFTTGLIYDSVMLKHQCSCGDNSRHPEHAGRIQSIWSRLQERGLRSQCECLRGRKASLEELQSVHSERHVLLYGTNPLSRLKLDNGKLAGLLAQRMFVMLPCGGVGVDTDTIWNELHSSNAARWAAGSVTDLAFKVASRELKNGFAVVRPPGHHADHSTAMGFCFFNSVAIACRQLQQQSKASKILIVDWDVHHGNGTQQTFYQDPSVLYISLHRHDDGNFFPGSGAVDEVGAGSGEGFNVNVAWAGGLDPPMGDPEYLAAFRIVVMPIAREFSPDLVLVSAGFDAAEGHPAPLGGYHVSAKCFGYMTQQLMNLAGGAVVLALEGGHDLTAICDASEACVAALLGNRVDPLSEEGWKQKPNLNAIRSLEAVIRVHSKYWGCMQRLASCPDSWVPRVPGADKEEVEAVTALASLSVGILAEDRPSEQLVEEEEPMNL

[4] = molecular target: T3, Histone deacetylase 8 (Homo sapiens) (UniProt Q9BY41); experiment: Inhibition of HDAC8 (unknown origin) assessed as residual activity at 3.70 x 10^-7M (reference value: 100%); conditions: dose 3.7 10^-7M
T3 sequence (whole entry): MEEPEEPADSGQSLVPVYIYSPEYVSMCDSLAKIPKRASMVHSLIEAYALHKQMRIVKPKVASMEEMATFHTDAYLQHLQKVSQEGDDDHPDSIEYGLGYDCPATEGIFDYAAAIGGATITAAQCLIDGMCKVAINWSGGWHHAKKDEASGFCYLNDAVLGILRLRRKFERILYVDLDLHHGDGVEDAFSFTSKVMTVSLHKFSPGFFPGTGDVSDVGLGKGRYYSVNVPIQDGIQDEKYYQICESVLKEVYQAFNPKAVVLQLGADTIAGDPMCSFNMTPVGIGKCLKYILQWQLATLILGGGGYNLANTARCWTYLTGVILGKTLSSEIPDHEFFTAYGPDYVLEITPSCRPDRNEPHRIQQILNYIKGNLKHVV

PC-3 = experiment: cells; format: functional, cell-based; conditions: Homo sapiens
Description: Antiproliferative activity against human PC-3 cells assessed as inhibition of cell growth by MTT assay

[5] = molecular target: Histone deacetylase 9 (Homo sapiens) (UniProt Q9UKV0); experiment: Inhibition of HDAC9 (unknown origin) assessed as residual activity at 5.08 x 10^-10M (reference value: 97.55%); conditions: dose 5.08 10^-10M
[6] = molecular target: Histone deacetylase 9 (Homo sapiens) (UniProt Q9UKV0); experiment: Inhibition of HDAC9 (unknown origin) assessed as residual activity at 4.57 x 10^-9M (reference value: 97.55%); conditions: dose 4.57 10^-9M
[7] = molecular target: T1, Polyamine deacetylase HDAC10 (Homo sapiens); experiment: Inhibition of HDAC10 (unknown origin) assessed as residual activity at 1 x 10^-5M (reference value: 101.54%); conditions: dose 1.0 10^-5M
[8] = molecular target: Histone deacetylase 4 (Homo sapiens) (UniProt P56524); experiment: Inhibition of HDAC4 (unknown origin) assessed as residual activity at 1.37 x 10^-8M (reference value: 98.90%); conditions: dose 1.37 10^-8M

Sequence of Histone deacetylase 9 (Homo sapiens) (Q9UKV0 whole entry): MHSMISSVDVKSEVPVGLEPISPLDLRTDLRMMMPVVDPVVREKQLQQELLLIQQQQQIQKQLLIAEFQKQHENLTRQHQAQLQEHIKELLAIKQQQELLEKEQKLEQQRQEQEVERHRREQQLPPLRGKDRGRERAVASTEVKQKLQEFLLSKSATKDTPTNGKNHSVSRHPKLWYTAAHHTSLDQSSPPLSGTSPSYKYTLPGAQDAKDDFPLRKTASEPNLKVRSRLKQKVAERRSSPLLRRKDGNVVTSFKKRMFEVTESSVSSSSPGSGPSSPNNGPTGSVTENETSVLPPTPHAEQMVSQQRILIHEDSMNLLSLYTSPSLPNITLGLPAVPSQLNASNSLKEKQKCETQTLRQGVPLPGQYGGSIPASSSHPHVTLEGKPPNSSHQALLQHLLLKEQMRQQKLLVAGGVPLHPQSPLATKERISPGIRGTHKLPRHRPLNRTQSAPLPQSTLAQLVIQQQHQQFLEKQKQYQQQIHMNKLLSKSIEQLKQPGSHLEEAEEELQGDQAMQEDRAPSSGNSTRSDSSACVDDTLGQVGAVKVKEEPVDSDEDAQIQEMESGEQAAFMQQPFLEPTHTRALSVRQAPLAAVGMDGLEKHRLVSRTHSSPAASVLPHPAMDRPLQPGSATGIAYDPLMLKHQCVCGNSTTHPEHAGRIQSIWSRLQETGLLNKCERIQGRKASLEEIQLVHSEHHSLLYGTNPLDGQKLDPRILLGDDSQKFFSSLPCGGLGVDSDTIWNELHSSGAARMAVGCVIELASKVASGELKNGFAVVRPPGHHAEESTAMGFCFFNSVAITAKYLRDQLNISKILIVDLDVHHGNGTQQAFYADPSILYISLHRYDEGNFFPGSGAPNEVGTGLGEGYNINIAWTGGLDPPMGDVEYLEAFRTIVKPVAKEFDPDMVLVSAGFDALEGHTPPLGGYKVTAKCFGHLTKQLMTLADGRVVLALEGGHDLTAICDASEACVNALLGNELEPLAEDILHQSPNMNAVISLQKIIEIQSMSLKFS
Sequence of Histone deacetylase 4 (Homo sapiens) (P56524 whole entry): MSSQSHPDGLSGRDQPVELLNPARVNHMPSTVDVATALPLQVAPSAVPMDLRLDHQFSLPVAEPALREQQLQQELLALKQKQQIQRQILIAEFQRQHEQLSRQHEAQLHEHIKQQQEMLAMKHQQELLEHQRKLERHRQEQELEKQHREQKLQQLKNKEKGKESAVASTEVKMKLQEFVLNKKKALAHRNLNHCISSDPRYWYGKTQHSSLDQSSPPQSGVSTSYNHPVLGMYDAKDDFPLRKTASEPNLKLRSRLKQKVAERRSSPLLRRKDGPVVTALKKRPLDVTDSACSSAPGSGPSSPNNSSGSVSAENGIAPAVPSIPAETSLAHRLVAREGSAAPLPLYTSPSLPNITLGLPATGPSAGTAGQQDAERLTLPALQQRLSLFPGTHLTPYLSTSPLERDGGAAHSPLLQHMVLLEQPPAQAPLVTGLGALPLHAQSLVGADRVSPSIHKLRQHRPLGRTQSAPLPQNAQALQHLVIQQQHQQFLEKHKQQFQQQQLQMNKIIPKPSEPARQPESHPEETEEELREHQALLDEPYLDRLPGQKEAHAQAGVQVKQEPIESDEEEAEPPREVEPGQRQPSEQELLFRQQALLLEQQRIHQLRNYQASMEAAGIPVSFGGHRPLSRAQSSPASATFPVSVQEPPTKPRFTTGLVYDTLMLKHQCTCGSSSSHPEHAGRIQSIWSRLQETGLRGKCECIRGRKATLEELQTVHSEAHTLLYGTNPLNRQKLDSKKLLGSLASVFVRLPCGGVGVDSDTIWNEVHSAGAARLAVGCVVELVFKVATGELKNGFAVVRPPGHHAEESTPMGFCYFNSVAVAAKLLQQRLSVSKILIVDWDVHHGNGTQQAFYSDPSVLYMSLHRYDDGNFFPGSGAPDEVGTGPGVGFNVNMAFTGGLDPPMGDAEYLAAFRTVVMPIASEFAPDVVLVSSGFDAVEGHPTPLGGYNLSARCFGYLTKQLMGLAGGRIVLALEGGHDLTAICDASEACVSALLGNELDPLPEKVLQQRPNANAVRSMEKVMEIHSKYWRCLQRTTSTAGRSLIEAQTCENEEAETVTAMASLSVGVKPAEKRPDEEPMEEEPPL

Activity [1]: 94.7%
Activity [2]: 94.8%
Activity [3]: 91.9%
Activity [4]: 99.5%
pIC50 (PC-3): 5.40
Activity [5]: 93.7%
Activity [6]: 82.9%
Activity [7]: 72.2%
Activity [8]: 96.3%
Structure (SMILES): NC(=O)c1cccc2[nH]c(-c3ccc(NCc4ccc(C(=O)Nc5ccccc5N)cc4)cc3)nc12
